Measured values as given in patent US4677069A, “Clam derived proteinases” (priority 1984, dated 1987).
Where a name gives a salt, the structure may show the parent alone. *1 amine or outer side, *2 acyl side, *3 side chain or, on linkers, in order; H or OH if unused. Where a SMILES comes first, the peptide text is derived from it. [ ]: non-standard residue; d: D form. The star is where a group is joined. Sta = CC(C)C[C@H](N)[C@@H](O)CC(=O)O; Isovaleryl = CC(C)CC(=O)*; CO = O=C([*:1])[*:2]

B1: Gastricin: carboxyl proteinase, stomach (protein, UniProt P20142 60-388, looked up)
Gastricsin: SVTYEPMAYMDAAYFGEISIGTPPQNFLVLFDTGSSNLWVPSVYCQSQACTSHSRFNPSESSTYSTNGQTFSLQYGSGSLTGFFGYDTLTVQSIQVPNQEFGLSENEPGTNFVYAQFDGIMGLAYPALSVDEATTAMQGMVQEGALTSPVFSVYLSNQQGSSGGAVVFGGVDSSLYTGQIYWAPVTQELYWQIGIEEFLIGGQASGWCSEGCQAIVDTGTSLLTVPQQYMSALLQATGAQEDEYGQFLVNCNSIQNLPSLTFIINGVEFPLPPSSYILSNNGYCTVGVEPTYLSSQNGQPLWILGDVFLRSYYSVYDLGNNRVGFATAA

Columns and labels:
[1] = system: PIII; assay: Inhibitor effect on proteolytic activity of PIII; assay type: biochemical, surf clam, Spisula solidissima
Procedure: The effect of inhibitors on proteolytic activity was determined by preincubating a mixture of inhibitor stock solution (0.05 ml), 0.2M citrate-phosphate buffer at pH 2.8 (1.7 ml) and enzyme solution (0.25 ml) for 10 min at room temperature before the addition of substrate. All inhibitors were from Sigma Co. (St. Louis, MO). The stock solutions were prepared by dissolving the inhibitors either in water or dimethyl sulfoxide (DMSO) as following:
(§1) Water--Leupeptin hemisulfate (60 ug/ml), Antipain (60 ug/ml), Poly-L-lysine(60 mg/ml), soybean trypsin inhibitor (60 mg/ml), ovomucoid trypsin inhibitor (60 mg/mL), Tosyl-lysine chloromethyl ketone (TLCK, 60 mM) and iodoacetamide (60 mM).
(§2) DMSO--Pepstatin (60 ug/ml), Tosyl-phenylalanine chloromethyl ketone (TPCK, 60 mM), Phenylmethanesulphonylfluoride (PMSF, 60 mM), and Diazoacetylnorleucine methyl ester (DNME, 60 mM).

[2] = system: PI & II; assay: Inhibitor effect on proteolytic activity of PI & II; assay type: biochemical, surf clam, Spisula solidissima
Procedure: All inhibitors were from Sigma Co. (St. Louis, MO). The stock solutions were prepared by dissolving the inhibitors either in water or dimethyl sulfoxide (DMSO) as following:
as §1, §2

[3] = system: PIII; assay: Heavy metal effect on proteolytic activity of PIII; assay type: biochemical, surf clam, Spisula solidissima; conditions: for PIII % Retention / PIII Activity (HU/ml): metal ions 0.5 mM, pH 2.8; for PIII Activity (HU/ml): control 258.7; for effect of metal ion on PIII: general assay procedure
Procedure: (§3) The effect of heavy metals on proteolytic activity was determined by preincubating a mixture of 5 mM heavy metal stock solution (0.3 ml), 0.2M citrate-phosphate buffer at pH 2.8 (1.6 ml) and enzyme solution (0.1 ml) at room temperature for 10 min before the addition of substrate. All stock solutions of metals were made from chloride salts, except that silver was prepared from the nitrate salt.

[4] = system: PI & II; assay: Heavy metal effect on proteolytic activity of PI & II; assay type: biochemical, surf clam, Spisula solidissima; conditions: for PI & II % Retention / PI & II Activity (HU/ml): metal ions 0.5 mM, pH 2.8; for PI & II Activity (HU/ml): control 214.7
Procedure: as §3

[5] = cited from earlier work; for Optimum pH: Table 7, literature
[6] = system: P2.2 enzyme; assay: Stabilization of P2.2 activity with reducing and chelating agents; conditions: EDTA or cysteine alone
[7] = Milk clotting time determination; assay type: biochemical
Procedure: (§4) The clotting activity of milk coagulants was determined according to the method of Berridge, with modifications (1952, The Analyst, 77: 57). To 0.05 ml (unless otherwise mentioned) of milk coagulant placed in a 25-ml test tube was added 10 ml of tempered substrate solution. The substrate solution was 10% reconstituted skim milk powder containing 10 mM CaCl2. The pH of this substrate solution was approximately 6.2. Where indicated, the pH of the substrate solution was adjusted with 0.5 N NaOH or HCl while agitating. The mixture of coagulant and substrate was then incubated at 30° C. water bath unless specifically indicated. Near the expected clotting time, which was determined by a preliminary test, the test tube was tilted ~60° at an interval of 5 seconds. The moment of the first flake appearance of the liquid flowing down the tube was recorded as milk clotting time.

[8] = system: Hemoglobin; assay: Relative ratio of clotting to proteolytic activity, hemoglobin; assay type: biochemical; conditions: 30° C., optimum pH of each enzyme (in parentheses), calf rennet = 1.00
Procedure: as §4
(§5) Milk coagulants were assayed for proteolytic activity according to the method described in Example 1.
(§6) The ratio of milk clotting activity to proteolytic activity against hemoglobin is often used to assess the suitability of enzymes as rennet substitute (Green, 1972, supra). Clam rennet had considerably lower ratio of clotting to […] activity at optimum pH of each individual enzyme. […]

[9] = system: casein; assay: Relative ratio of clotting to proteolytic activity, casein; assay type: biochemical; conditions: 30° C., pH 6.2 of milk clotting assay, calf rennet = 1.00
Procedure: as §4, §5, §6

[10] = system: Hemoglobin; conditions: pH 2.0, 37° C., Sigma lot; cited from earlier work
[11] = 1 ug/ml, pH 2.8, 10 min preincubation

Molecule	PIII % Retention [3]	PIII Activity (HU/ml) [3]	PI & II % Retention [4]	PI & II Activity (HU/ml) [4]	Optimum pH [5]	other results
NC(=O)CI [Iodoacetamide]	–	–	–	–	–	effect of inhibitor on PIII [1]: inhibited; % Residual activity PIII, final conc. 1 mM ([1]; pH 2.8, 10 min preincubation): 78.3%; % Residual activity PI & II, final conc. 1 mM ([2]; pH 2.8, 10 min preincubation): 98.9%
[Zn+2] [Zn++]	103.1%	266.7 HU/ml	90.4%	194.0 HU/ml	–	–
O=S(=O)(F)Cc1ccccc1 [PMSF, phenylmethanesulphonylfluoride]	–	–	–	–	–	effect of inhibitor on PIII [1]: inhibited; % Residual activity PIII, final conc. 1 mM ([1]; pH 2.8, 10 min preincubation): 53.5%; % Residual activity PI & II, final conc. 1 mM ([2]; pH 2.8, 10 min preincubation): 102.2%
CC(C)[C@H](NC(=O)[C@H](CCCNC(=N)N)NC(=O)N[C@@H](Cc1ccccc1)C(=O)O)C(=O)N[C@H](C=O)CCCNC(=N)N [Antipain di-HCl] ({Phe-CO}-Arg-Val-Arg-aldehyde)	–	–	–	–	–	% Residual activity PIII, final conc. 1 ug/ml [1, 11]: 89.7%; % Residual activity PI & II, final conc. 1 ug/ml [2, 11]: 102.9%
CCCC[C@H](NC(=O)C=[N+]=[N-])C(=O)OC [DNME, diazoacetylnorleucine methyl ester]	–	–	–	–	–	effect of inhibitor on PIII [1]: very sensitive; % Residual activity PIII, final conc. 1 mM ([1]; pH 2.8, 10 min preincubation): 64.9%; % Residual activity PI & II, final conc. 1 mM ([2]; pH 2.8, 10 min preincubation): 100.0%; effect of DNME on PI&II in the presence of cupric ions ([2]; with cupric ions, up to 4 hours of preincubation): not sensitive
Trypsin	–	–	–	–	~ 8.0	–
[Co+2] [Co++]	90.7%	234.7 HU/ml	96.9%	208.0 HU/ml	–	–
Cl.N[C@@H](CS)C(=O)O [Cysteine-HCl]	–	–	–	–	–	optimum concentration for stabilizing P2.2, reagent alone [6]: 2.5 mM
Elastase	–	–	–	–	8.2-8.5	–
Poly-L-lysine	–	–	–	–	–	% Residual activity PIII, final conc. 1 ug/ml ([1]; pH 2.8): 101.1%; % Residual activity PI & II, final conc. 1 ug/ml ([2]; pH 2.8): 99.3%
Cathepsin D: mammalian carboxyl proteinase, literature comparator	–	–	–	–	2.8-5.0	Activators, mammalian cathepsins ([5]; Table 11, literature): none; Temperature optima, mammalian cathepsins ([5]; Table 11, literature): 45 °C; pH optima hemoglobin, mammalian cathepsins ([5]; Table 11, literature): 2.8-3.5; pH stability, mammalian cathepsins ([5]; unstable at pH > 7, literature): unstable
Kallikrein	–	–	–	–	8.6-8.8	–
[Sn+2] [Sn++]	83.7%	216.5 HU/ml	88.8%	190.6 HU/ml	–	effect of metal ion on PIII [3]: inhibits PIII slightly
[Pb+2] [Pb++]	96.9%	250.7 HU/ml	99.7%	214.0 HU/ml	–	effect of metal ion on PIII [3]: didn't inhibit; PIII activity detected, addition order of buffer and inhibitor solution reversed ([3]; reversed addition order): 20.7%
[Ni+2] [Ni++]	92.5%	239.4 HU/ml	96.0%	206.0 HU/ml	–	–
Cc1ccc(S(=O)(=O)NC(Cc2ccccc2)C(=O)CCl)cc1 (stereo not drawn) [TPCK, tosylphenylalanine chloromethyl ketone]	–	–	–	–	–	effect of inhibitor on PIII [1]: inhibited; % Residual activity PIII, final conc. 1 mM ([1]; pH 2.8, 10 min preincubation): 21.2%; % Residual activity PI & II, final conc. 1 mM ([2]; pH 2.8, 10 min preincubation): 96.4%
Urokinase	–	–	–	–	7.5-7.6	–

Molecule	PIII % Retention [3]	PIII Activity (HU/ml) [3]	PI & II % Retention [4]	PI & II Activity (HU/ml) [4]	Optimum pH [5]	other results
CC(=O)N[C@@H](CC(C)C)C(=O)N[C@@H](CC(C)C)C(=O)N[C@H](C=O)CCCNC(=N)N [Leupeptin hemisulfate]	–	–	–	–	–	effect of inhibitor on PIII [1]: inhibited; % Residual activity PIII, final conc. 1 ug/ml [1, 11]: 33.4%; % Residual activity PI & II, final conc. 1 ug/ml [2, 11]: 96.5%
cathepsin L: thiol proteinase, liver	–	–	–	–	5.0-5.5	–
Chymotrypsin	–	–	–	–	~ 8.0	–
[Cd+2] [Cd++]	96.4%	249.4 HU/ml	96.3%	206.7 HU/ml	–	–
Porcine pepsin: two-time crystallized and lyophilized powder of porcine pepsin (Sigma Co.)	–	–	–	–	–	Linear regression X-Intercept (Table 17) ([7]; 1/tc vs C, equation 3-3): 0.0019; Linear regression Y-Intercept (Table 17) ([7]; 1/tc vs C, equation 3-3): -0.00013; Linear regression Slope (Table 17) ([7]; 1/tc vs C, equation 3-3, FIG. 7): 0.06597; Linear regression Slope (Table 16) ([7]; clotting time tc vs 1/C, equation 3-2): 16.5; milk clotting at pH 6.8 or above ([7]; milk pH 6.8 or above): unable to clot milk; Linear regression X-Intercept (Table 16) ([7]; tc vs 1/C, equation 3-2): 1.9; Linear regression Y-Intercept (Table 16) ([7]; tc vs 1/C, equation 3-2): -8.7; relative ratio of clotting to proteolytic activity, Hemoglobin [8]: 0.30; relative ratio of clotting to proteolytic activity, Casein [9]: 0.24; specification of the pepsin lot [10]: 2900 units/mg solid
[Hg+2] [Hg++]	0.0%	0.0 HU/ml	87.1%	187.0 HU/ml	–	effect of metal ion on PIII [3]: extremely sensitive
CC(C)CC(=O)N[C@H](C(=O)N[C@H](C(=O)N[C@@H](CC(C)C)[C@@H](O)CC(=O)N[C@@H](C)C(=O)N[C@@H](CC(C)C)[C@@H](O)CC(=O)O)C(C)C)C(C)C [Pepstatin] (Isovaleryl-VV[Sta]A[Sta]-OH)	–	–	–	–	–	% Residual activity PIII, final conc. 1 ug/ml [1, 11]: 99.4%; effect of inhibitor on PI&II [2]: strongly inhibited; % Residual activity PI & II, final conc. 1 ug/ml [2, 11]: 25.0%
Renin	–	–	–	–	5.5-8.0	–
O=C(O)CN(CCN(CC(=O)O)CC(=O)O)CC(=O)O [Na2 --EDTA]	–	–	–	–	–	optimum concentration for stabilizing P2.2, reagent alone [6]: 10 mM
[Mg+2] [Mg++]	98.2%	254.0 HU/ml	98.5%	211.4 HU/ml	–	–
Cathepsin G	–	–	–	–	~ 7.5	–
Pepsin	–	–	–	–	1.7-2.0	General proteolysis ([5]; Table 7, graded + to +++, literature): ++ +
[Cu+2] [Cu++]	18.0%	46.7 HU/ml	95.7%	205.4 HU/ml	–	effect of cupric ion on PIII at 1 mM ([3]; 1 mM cupric ion): Almost total inactivation; effect of metal ion on PIII [3]: very sensitive; effect of cupric ion on PI&II at or below 1 mM ([4]; at or below 1 mM cupric ion): not sensitive
[Ca+2] [Ca++]	99.2%	256.7 HU/ml	97.5%	209.4 HU/ml	–	–
[Ag+] [Ag+]	95.0%	245.8 HU/ml	102.2%	219.3 HU/ml	–	–
Cc1ccc(S(=O)(=O)NC(CCCCN)C(=O)CCl)cc1 (stereo not drawn) [TLCK, tosyllysine chloromethyl ketone]	–	–	–	–	–	effect of inhibitor on PIII [1]: inhibited; % Residual activity PIII, final conc. 1 mM ([1]; pH 2.8, 10 min preincubation): 16.8%; % Residual activity PI & II, final conc. 1 mM ([2]; pH 2.8, 10 min preincubation): 96.2%
B1	–	–	–	–	3.0	–
